The values below come from US8012987B2, “Indolo[2,1-b] quinazole-6,12-dione antimalarial compounds and methods of treating malaria therewith” (The United States of America as represented by the …, priority 1998, dated 2011).

Each structure is given as a SMILES string. ≈ marks a conversion by molar mass, not a printed value. Where “and” joins values, the source holds several entries; their conditions need not be identical. Identical values can stand only once. Like-named read-outs stand apart in the source and are kept apart here.

Type in all cases: cell-based
Experiment [1] has as its system Plasmodium falciparum clone CDC Indochina III (W-2). In words: In vitro inhibition of [3H]hypoxanthine uptake, P. falciparum W-2 clone. The following applies: for IC50: Plasmodium falciparum, read-out: IC50 (W-2). On the procedure:
(§1) The in vitro assays were conducted by using a modification of the semiautomated microdilution technique of Desjardins et al.^11 and Chulay et al.^12 Two strains of Plasmodium falciparum clones, from CDC Indochina III (W-2), CDC Sierra Leone I (D-6). […] These solutions were subsequently serially diluted 2-fold with a Biomek 1000® (Beckman, Fullerton, Calif.) over 11 different concentrations. The parasites were exposed to serial dilutions of each compound for 48 h and incubated at 37° C. with 5% O2, 5% CO2, and 90% N2 prior to the addition of [^3H]hypoxanthine. […] Uptake of [^3H]hypoxanthine was measured with a Packard Topcount scintillation counter. […] The values without parentheses indicate culture in blood serum which more closely resemble conditions in a living animal.
(§2) The numbers associated with both W2 and D6 refer to IC50 values and the units are ng/ml.

In experiment [2] the test system is Plasmodium falciparum clone CDC Sierra Leone I (D-6). In words: In vitro inhibition of [3H]hypoxanthine uptake, P. falciparum D-6 clone. The following applies: for IC50: Plasmodium falciparum, read-out: IC50 (D-6). On the procedure:
as §1, §2

The test system of experiment [3] is Plasmodium falciparum clone Thai TM90C2B. In words: In vitro inhibition of [3H]hypoxanthine uptake, P. falciparum TM90C2B. The following applies: values without parentheses: blood serum (footnote: blood plasma) replacing Albumax; for IC50: Plasmodium falciparum, TM90C2B. On the procedure:
(§3) The in vitro assays were conducted by using a modification of the semiautomated microdilution technique of Desjardins et al.^11 and Chulay et al.^12 Two strains of Plasmodium falciparum clones, from CDC Indochina III (W-2), CDC Sierra Leone I (D-6). […] They were derived by direct visualization and micromanipulation from patient isolates.^13 Test compounds were initially dissolved in DMSO and diluted 400-fold in RPMI 1640 culture medium supplemented with 25 mM Hepes, 32 mM HaHCO3, and 10% Albumax I® (GIBCO BRL, Grand Island, N.Y.). These solutions were subsequently serially diluted 2-fold with a Biomek 1000® (Beckman, Fullerton, Calif.) over 11 different concentrations. The parasites were exposed to serial dilutions of each compound for 48 h and incubated at 37° C. with 5% O2, 5% CO2, and 90% N2 prior to the addition of [^3H]hypoxanthine. After a further incubation of 18 h, parasite DNA was harvested from each microtiter well using Packard Filtermate 196 Harvester® (Meriden, Conn.) onto glass filters. Uptake of [^3H]hypoxanthine was measured with a Packard Topcount scintillation counter. […] This procedure was repeated with the test compounds initially dissolved in DMSO and diluted 400-fold in RPMI 1640 culture medium supplemented with 25 mM Hepes, 32 mM HaHCO3, and with blood serum replacing the 10% Albumax I® (see Table 1, figures without parentheses). The values without parentheses indicate culture in blood serum which more closely resemble conditions in a living animal.
(§4) Four strains of Plasmodium falciparum clones, from CDC Indochina III (W-2), CDC Sierra Leone I (D-6), Thai WR75-TM9, and Thai TM90C2B were utilized in susceptibility testing and the IC50 results appear in Table 1.

The test system of experiment [4] is Plasmodium falciparum clone Thai WR75-TM9. In words: In vitro inhibition of [3H]hypoxanthine uptake, P. falciparum WR75-TM9. The conditions noted are these: values without parentheses: blood serum (footnote: blood plasma) replacing Albumax; for IC50: Plasmodium falciparum. On the procedure:
as §3, §4

For the next experiment, the system named is Plasmodium falciparum. In words: In vitro antimalarial activity against Plasmodium falciparum (strain not given). The following applies: judged from the IC50 values of Table 1. On the procedure:
as §3, §4

The mark [5] stands for this setting: values in parentheses: culture medium with 10% Albumax I.
The mark [6] stands for this setting: values without parentheses: blood serum (footnote: blood plasma) replacing Albumax.

A word on the IC50: it is the concentration needed to halve the response being measured.

On to `O=C1c2cc(F)ccc2N2C(=O)c3ccccc3NC12` (stereo not drawn) [Example 4], for which the IC50 in experiment [1] (setting [5]) was 2.33 ng/mL (≈ 0.00869 µM); in experiment [1] (setting [6]), 15.3 ng/mL (≈ 0.0572 µM); in experiment [2] (setting [5]) it was 4.07 ng/mL (≈ 0.0152 µM); in experiment [2] (setting [6]), 18.9 ng/mL (≈ 0.0704 µM); in experiment [3], 29.8 ng/mL (≈ 0.111 µM).

Consider `Cc1ccc2nc3n(c(=O)c2c1)-c1ccc(F)cc1C3=O` [Example 11], for which the IC50 came out at 2.8 ng/mL (≈ 0.00999 µM) in experiment [1] (setting [5]); 14.7 ng/mL (≈ 0.0524 µM) in experiment [1] (setting [6]); 4.9 ng/mL (≈ 0.0175 µM) in experiment [2] (setting [5]); 22.1 ng/mL (≈ 0.0787 µM) in experiment [2] (setting [6]); 16.4 ng/mL (≈ 0.0585 µM) in experiment [3].

As to `O=C1c2cc(F)ccc2-n2c1nc1cc(F)ccc1c2=O` [Example 12], the IC50 in experiment [1] (setting [5]) amounted to 1.6 ng/mL (≈ 0.00563 µM); in experiment [1] (setting [6]) it was 5.27 ng/mL (≈ 0.0186 µM); in experiment [4] it was 12 ng/mL (≈ 0.042 µM); in experiment [2] (setting [5]) it was 4.9 ng/mL (≈ 0.0172 µM); in experiment [2] (setting [6]) it was 8.54 ng/mL (≈ 0.03 µM); in experiment [3], 9.74 ng/mL (≈ 0.0343 µM). Further, in experiment [1] (setting [6]), the “IC50 (W-2)” value was 5.787 ng/mL and 6.539 ng/mL. The “IC50 (WR75-TM9)” value in experiment [4] is 16.249 ng/mL and 19.374 ng/mL. Also, in experiment [2] (setting [6]), the “IC50 (D-6)” value was 14.239 ng/mL and 11.005 ng/mL. Moreover, the “IC50 (TM90C2B)” value in experiment [3] is 16.914 ng/mL and 11.113 ng/mL.

In the case of `O=C1c2cc(F)ccc2-n2c1nc1ncccc1c2=O` [Example 17], the IC50 in experiment [1] (setting [5]) was 0.84 ng/mL (≈ 0.00314 µM); in experiment [1] (setting [6]), 2.12 ng/mL (≈ 0.00795 µM); in experiment [4] it was 9.93 ng/mL (≈ 0.0372 µM); in experiment [2] (setting [5]), 1.53 ng/mL (≈ 0.00573 µM); in experiment [2] (setting [6]), 4.93 ng/mL (≈ 0.0184 µM); in experiment [3], 4.21 ng/mL (≈ 0.0157 µM). Further, the “IC50 (WR75-TM9)” value in experiment [4] turned out to be 8.002 ng/mL (≈ 0.0299 µM).

In the case of `O=C1c2cc(F)ccc2-n2c1nc1c(F)cccc1c2=O` [Example 19], the IC50 was determined as 1.58 ng/mL (≈ 0.00556 µM) in experiment [1] (setting [5]); 8.14 ng/mL (≈ 0.0286 µM) in experiment [1] (setting [6]); 2.57 ng/mL (≈ 0.00904 µM) in experiment [2] (setting [5]); 13.5 ng/mL (≈ 0.0476 µM) in experiment [2] (setting [6]); 9.78 ng/mL (≈ 0.0344 µM) in experiment [3].

For `O=C1c2cc(Cl)ccc2-n2c1nc1ncccc1c2=O` [Example 21], the IC50 in experiment [1] (setting [5]) is 0.43 ng/mL (≈ 0.00152 µM); in experiment [1] (setting [6]) it was 1.28 ng/mL (≈ 0.00451 µM); in experiment [2] (setting [5]) it was 0.93 ng/mL (≈ 0.00328 µM); in experiment [2] (setting [6]), 0.926 ng/mL (≈ 0.00326 µM); in experiment [3] it was 2.3 ng/mL (≈ 0.00811 µM). Further, in the experiment on Plasmodium falciparum, the “effectiveness in treating/reducing malaria parasites as shown in Table 1” value is “most effective”.

As to `CCOC(=O)c1ccc2c(c1)C(=O)c1nc3ncccc3c(=O)n1-2` [Example 24], the IC50 in experiment [1] (setting [5]) is 0.91 ng/mL (≈ 0.00283 µM); in experiment [2] (setting [5]) it was 2.01 ng/mL (≈ 0.00626 µM); in experiment [2] (setting [6]), 10.1 ng/mL (≈ 0.0314 µM); in experiment [3], 7.78 ng/mL (≈ 0.0242 µM).

Regarding `COc1cccc2c(=O)n3c(nc12)C(=O)c1cc(I)ccc1-3` [Example 27], the IC50 was determined as 1.79 ng/mL (≈ 0.00443 µM) in experiment [1] (setting [5]), 3.01 ng/mL (≈ 0.00745 µM) in experiment [2] (setting [5]) and 41.1 ng/mL (≈ 0.102 µM) in experiment [3].

Take `O=C1c2cc(Br)ccc2-n2c1nc1ccncc1c2=O` [Example 39]: the IC50 stood at 1.88 ng/mL (≈ 0.00573 µM) in experiment [1] (setting [5]); 1.87 ng/mL (≈ 0.0057 µM) in experiment [1] (setting [6]); 4.2 ng/mL (≈ 0.0128 µM) in experiment [4]; 3.57 ng/mL (≈ 0.0109 µM) in experiment [2] (setting [5]); 3.57 ng/mL (≈ 0.0109 µM) in experiment [2] (setting [6]); 46 ng/mL (≈ 0.14 µM) in experiment [3].

For the compound `O=C1c2cc(Cl)ccc2-n2c1nc1cc(F)ccc1c2=O` [Example 45], the IC50 in experiment [1] (setting [5]) was found to be 0.728 ng/mL (≈ 0.00242 µM); in experiment [4], 14.2 ng/mL (≈ 0.0471 µM); in experiment [2] (setting [5]), 1.28 ng/mL (≈ 0.00426 µM).

With `CN(CCO)c1ccc2c(=O)n3c(nc2c1)C(=O)c1cc(Cl)ccc1-3` [Example 46], the IC50 in experiment [1] (setting [5]) stood at 6.32 ng/mL (≈ 0.0178 µM); in experiment [1] (setting [6]), 23 ng/mL (≈ 0.0646 µM); in experiment [4], 66.4 ng/mL (≈ 0.187 µM); in experiment [2] (setting [5]) it was 7.61 ng/mL (≈ 0.0214 µM); in experiment [2] (setting [6]), 42.6 ng/mL (≈ 0.12 µM); in experiment [3], 24.4 ng/mL (≈ 0.0686 µM).

Regarding `Cc1ncc2c(=O)n3c(nc2n1)C(=O)c1cc(Cl)ccc1-3` [Example 55], the IC50 was determined as 2.1 ng/mL (≈ 0.00703 µM) in experiment [1] (setting [5]); 2.3 ng/mL (≈ 0.00771 µM) in experiment [1] (setting [6]); 14.2 ng/mL (≈ 0.0476 µM) in experiment [4]; 7.2 ng/mL (≈ 0.0241 µM) in experiment [2] (setting [5]); 11.2 ng/mL (≈ 0.0376 µM) in experiment [2] (setting [6]); 5.48 ng/mL (≈ 0.0184 µM) in experiment [3].

As for `N#CC(C#N)=c1c2cc(F)ccc2n2c(=O)c3ccccc3nc12` [Example 57], the IC50 in experiment [1] (setting [5]) worked out at 10.6 ng/mL (≈ 0.0337 µM); in experiment [1] (setting [6]) it was 28.9 ng/mL (≈ 0.0921 µM); in experiment [4], 82.6 ng/mL (≈ 0.263 µM); in experiment [2] (setting [5]), 20.3 ng/mL (≈ 0.0647 µM); in experiment [2] (setting [6]), 46.5 ng/mL (≈ 0.148 µM); in experiment [3] it was 62.2 ng/mL (≈ 0.198 µM).
